Reference: patent publication US9382197B2, “Substituted hydroxamic acids and uses thereof” (Millennium Pharmaceuticals, Inc., priority 2010, dated 2016)

Target: T1, purified human HDAC6 (Homo sapiens, UniProt Q9UBN7)
T1 construct: purchased BPS Bioscience 5006
T1 sequence (Q9UBN7 1-1215): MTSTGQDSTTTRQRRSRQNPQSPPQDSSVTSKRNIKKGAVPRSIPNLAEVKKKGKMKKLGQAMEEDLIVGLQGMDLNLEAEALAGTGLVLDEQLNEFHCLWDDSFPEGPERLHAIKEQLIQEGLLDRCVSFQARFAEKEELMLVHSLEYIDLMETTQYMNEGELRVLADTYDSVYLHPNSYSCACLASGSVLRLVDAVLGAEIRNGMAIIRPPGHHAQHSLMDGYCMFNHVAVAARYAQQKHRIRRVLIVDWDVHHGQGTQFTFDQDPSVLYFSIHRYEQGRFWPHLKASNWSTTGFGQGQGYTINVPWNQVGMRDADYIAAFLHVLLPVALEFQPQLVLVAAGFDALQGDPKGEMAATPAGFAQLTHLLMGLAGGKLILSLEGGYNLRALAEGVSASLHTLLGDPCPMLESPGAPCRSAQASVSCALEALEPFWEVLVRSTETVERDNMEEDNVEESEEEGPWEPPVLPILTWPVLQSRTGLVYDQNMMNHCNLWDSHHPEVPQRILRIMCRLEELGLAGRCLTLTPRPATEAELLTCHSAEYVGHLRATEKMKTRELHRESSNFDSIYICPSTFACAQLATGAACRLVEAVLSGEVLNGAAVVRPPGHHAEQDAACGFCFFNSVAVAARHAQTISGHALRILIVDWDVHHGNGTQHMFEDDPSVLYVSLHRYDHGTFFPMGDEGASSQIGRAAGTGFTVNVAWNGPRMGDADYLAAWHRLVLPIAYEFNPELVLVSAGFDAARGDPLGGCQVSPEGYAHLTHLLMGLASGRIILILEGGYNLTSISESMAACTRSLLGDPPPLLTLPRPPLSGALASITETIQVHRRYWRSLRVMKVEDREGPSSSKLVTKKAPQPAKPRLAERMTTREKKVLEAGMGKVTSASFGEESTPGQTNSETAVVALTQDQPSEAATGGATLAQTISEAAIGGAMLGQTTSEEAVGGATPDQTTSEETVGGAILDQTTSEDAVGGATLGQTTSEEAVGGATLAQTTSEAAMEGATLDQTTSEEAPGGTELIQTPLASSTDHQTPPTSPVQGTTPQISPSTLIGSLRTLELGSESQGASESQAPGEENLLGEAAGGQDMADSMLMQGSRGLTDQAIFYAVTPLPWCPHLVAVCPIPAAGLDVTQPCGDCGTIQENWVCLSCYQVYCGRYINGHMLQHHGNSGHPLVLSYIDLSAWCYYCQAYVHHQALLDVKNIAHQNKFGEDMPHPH
Assay: HDAC6 Enzyme Assay
Type: biochemical
Conditions: bin: greater than 500 nM and less than 1 μM (lower bound in nM, upper bound in μM)
In short: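 Deacetylated product quantified after trypsin digestion as released AMC (340/460 nm), following a 1 h, 30 °C reaction of human HDAC6 with Ac-RGK(Ac)-AMC peptide, quenched by trichostatin A. IC50 derived from DMSO-normalized curves.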

IC50 [nM]	SMILES
500 to 1000	C[C@H](NC(=O)C1(C)CCCCC1)c1ccc(C(=O)NO)cc1 [Compound I-273, N-hydroxy-4-((1S)-1-{[(1-methylcyclohexyl)carbonyl]amino}ethyl)benzamide]
500 to 1000	CC(NC(=O)c1cc(F)cc(F)c1)c1cccc(C(=O)NO)c1 (stereo not shown) [Compound I-137, 3,5-difluoro-N-(1-{3-[(hydroxyamino)carbonyl]phenyl}ethyl)benzamide]

Same assay, conditions: bin: greater than 1 μM

IC50 [nM]	SMILES
> 1000	Cc1oc(-c2ccccc2)nc1CC(=O)NC(C)c1cccc(C(=O)NO)c1 (stereo not shown) [Compound I-234, N-hydroxy-3-(1-{[(5-methyl-2-phenyl-1,3-oxazol-4-yl)acetyl]amino}ethyl)benzamide]
> 1000	Cc1noc(C)c1C(=O)NC(C)c1ccc(C(=O)NO)cc1 (stereo not shown) [Compound I-326, N-(1-{4-[(hydroxyamino)carbonyl]phenyl}ethyl)-3,5-dimethylisoxazole-4-carboxamide]
> 1000	CC(NC(=O)CC1CCCC1)c1ccc(C(=O)NO)cc1 (stereo not shown) [Compound I-370, 4-{1-[(cyclopentylacetyl)amino]ethyl}-N-hydroxybenzamide]
> 1000	CC(NC(=O)CC(C)(C)C)c1ccc(C(=O)NO)cc1 (stereo not shown) [Compound I-144, 4-{1-[(3,3-dimethylbutanoyl)amino]ethyl}-N-hydroxybenzamide]
> 1000	CC(C)c1ccc(CC(=O)NC(C)c2ccc(C(=O)NO)cc2)cc1 (stereo not shown) [Compound I-285, N-hydroxy-4-(1-{[(4-isopropylphenyl)acetyl]amino}ethyl)benzamide]
> 1000	CC(C)(C)CC(=O)NC(c1ccc(C(=O)NO)cc1)C(C)(C)C (stereo not shown) [Compound I-396, 4-{1-[(3,3-dimethylbutanoyl)amino]-2,2-dimethylpropyl}-N-hydroxybenzamide]
> 1000	Cn1c(C(=O)NC(c2ccc(C(=O)NO)cc2)C(C)(C)C)cc2oc(-c3ccc(C(F)(F)F)cc3)cc21 (stereo not shown) [Compound I-248, N-(1-{4-[(hydroxyamino)carbonyl]phenyl}-2,2-dimethylpropyl)-4-methyl-2-[4-(trifluoromethyl)phenyl]-4H-furo[3,2-b]pyrrole-5-carboxamide]

Same assay, conditions: purified human HDAC6, substrate Ac-Arg-Gly-Lys(Ac)-AMC, 1 hour at 30° C.; reported as bins

SMILES	IC50 [nM]
COc1cccc(S(=O)(=O)NC(C)c2ccc(C(=O)NO)cc2)c1 (stereo not shown) [Compound I-23, N-hydroxy-4-(1-{[(3-methoxyphenyl)sulfonyl]amino}ethyl)benzamide]	100 to 500
C[C@@H](NC(=O)c1cc(Cl)c(Cl)n1C)c1cccc(C(=O)NO)c1 [Compound I-301, 4,5-dichloro-N-((1R)-1-{3-[(hydroxyamino)carbonyl]phenyl}ethyl)-1-methyl-1H-pyrrole-2-carboxamide]	100 to 500
CC(C)[C@@H](NC(=O)Nc1ccc(C#N)cc1)c1ccc(C(=O)NO)cc1 [Compound I-525, 4-[(1R)-1-({[(4-cyanophenyl)amino]carbonyl}amino)-2-methylpropyl]-N-hydroxybenzamide]	< 100
CC(NC(=O)C1(C)CCCCC1)c1ccc(C(=O)NO)cc1 (stereo not shown) [Compound I-132, N-hydroxy-4-(1-{[(1-methylcyclohexyl)carbonyl]amino}ethyl)benzamide]	< 100
CC(NC(=O)Nc1ccccc1Oc1ccccc1)c1ccc(C(=O)NO)cc1 (stereo not shown) [Compound I-31, N-hydroxy-4-[1-({[(2-phenoxyphenyl)amino]carbonyl}amino)ethyl]benzamide]	< 100
CC(NC(=O)Nc1ccc(OC(F)(F)F)cc1)c1ccc(C(=O)NO)cc1 (stereo not shown) [Compound I-141, N-hydroxy-4-{1-[({[4-(trifluoromethoxy)phenyl]amino}carbonyl)amino]ethyl}benzamide]	< 100
C[C@@H](NC(=O)C1(C)CCNCC1)c1ccc(C(=O)NO)cc1 [Compound I-487, N-((1R)-1-{4-[(hydroxyamino)carbonyl]phenyl}ethyl)-4-methylpiperidine-4-carboxamide]	100 to 500
CC(NC(=O)CC1Cc2ccccc2C1)c1ccc(C(=O)NO)cc1 (stereo not shown) [Compound I-357, 4-{1-[(2,3-dihydro-1H-inden-2-ylacetyl)amino]ethyl}-N-hydroxybenzamide]	< 100
CC(C)C(NC(=O)c1ccc(-c2ccccc2)cc1)c1ccc(C(=O)NO)cc1 (stereo not shown) [Compound I-11, N-(1-{4-[(hydroxyamino)carbonyl]phenyl}-2-methylpropyl)biphenyl-4-carboxamide]	< 100
CC(C)[C@@H](NC(=O)Nc1c(F)cccc1F)c1ccc(C(=O)NO)cc1 [Compound I-521, 4-[(1R)-1-({[(2,6-difluorophenyl)amino]carbonyl}amino)-2-methylpropyl]-N-hydroxybenzamide]	< 100
CC(C)[C@@H](NC(=O)c1cc2ccccc2o1)c1ccc(C(=O)NO)cc1 [Compound I-22, N-((1R)-1-{4-[(hydroxyamino)carbonyl]phenyl}-2-methylpropyl)-1-benzofuran-2-carboxamide]	< 100
COc1ccc(NC(=O)NC(C)c2ccc(C(=O)NO)cc2)c(OC)c1 (stereo not shown) [Compound I-44, 4-[1-({[(2,4-dimethoxyphenyl)amino]carbonyl}amino)ethyl]-N-hydroxybenzamide]	< 100
CC(C)C(NC(=O)C12CC3CC(CC(C3)C1)C2)c1ccc(C(=O)NO)cc1 (stereo not shown) [Compound I-58, N-(1-{4-[(hydroxyamino)carbonyl]phenyl}-2-methylpropyl)adamantane-1-carboxamide]	< 100
CC(NC(=O)c1c[nH]c2ccccc12)c1cccc(C(=O)NO)c1 (stereo not shown) [Compound I-10, N-(1-{3-[(hydroxyamino)carbonyl]phenyl}ethyl)-1H-indole-3-carboxamide]	100 to 500
CC(NC(=O)c1cc(-c2ccccc2)n[nH]1)c1ccc(C(=O)NO)cc1 (stereo not shown) [Compound I-109, N-(1-{4-[(hydroxyamino)carbonyl]phenyl}ethyl)-3-phenyl-1H-pyrazole-5-carboxamide]	< 100

Now from value to molecule:

IC50 [nM]	SMILES
< 100	C[C@@H](NC(=O)c1cc2ccccc2s1)c1ccc(C(=O)NO)cc1 [Compound I-184, N-((1R)-1-{4-[(hydroxyamino)carbonyl]phenyl}ethyl)-1-benzothiophene-2-carboxamide]
< 100	CC(=O)Nc1cc(NC(C)=O)cc(C(=O)NC(c2ccc(C(=O)NO)cc2)C(C)C)c1 (stereo not shown) [Compound I-282, 3,5-bis(acetylamino)-N-(1-{4-[(hydroxyamino)carbonyl]phenyl}-2-methylpropyl)benzamide]
100 to 500	Cc1cc(C(=O)NC(c2ccc(C(=O)NO)cc2)C(C)(C)C)nn1C (stereo not shown) [Compound I-260, N-(1-{4-[(hydroxyamino)carbonyl]phenyl}-2,2-dimethylpropyl)-1,5-dimethyl-1H-pyrazole-3-carboxamide]
< 100	CC(NC(=O)C1CCCCC1)c1ccc(C(=O)NO)cc1 (stereo not shown) [Compound I-208, 4-{1-[(cyclohexylcarbonyl)amino]ethyl}-N-hydroxybenzamide]
< 100	CC(NC(=O)Nc1ccc(F)cc1)c1ccc(C(=O)NO)cc1 (stereo not shown) [Compound I-37, 4-[1-({[(4-fluorophenyl)amino]carbonyl}amino)ethyl]-N-hydroxybenzamide]
< 100	CC(NC(=O)c1ccc2ccccc2c1)c1ccc(C(=O)NO)cc1 (stereo not shown) [Compound I-327, N-(1-{4-[(hydroxyamino)carbonyl]phenyl}ethyl)-2-naphthamide]
< 100	C[C@@H](NC(=O)c1ccc(-c2ccccc2)cc1)c1ccc(C(=O)NO)cc1 [Compound I-92, N-((1R)-1-{4-[(hydroxyamino)carbonyl]phenyl}ethyl)biphenyl-4-carboxamide]
< 100	Cc1cc(C)n2nc(C(=O)NC(C)c3ccc(C(=O)NO)cc3)cc2n1 (stereo not shown) [Compound I-160, N-(1-{4-[(hydroxyamino)carbonyl]phenyl}ethyl)-5,7-dimethylpyrazolo[1,5-a]pyrimidine-2-carboxamide]
< 100	Cn1cc(C(=O)NC(c2ccc(C(=O)NO)cc2)C(C)(C)C)c2ccccc21 (stereo not shown) [Compound I-107, N-(1-{4-[(hydroxyamino)carbonyl]phenyl}-2,2-dimethylpropyl)-1-methyl-1H-indole-3-carboxamide]
< 100	CC(C)(C)C(NC(=O)c1c[nH]c2ccccc12)c1ccc(C(=O)NO)cc1 (stereo not shown) [Compound I-319, N-(1-{4-[(hydroxyamino)carbonyl]phenyl}-2,2-dimethylpropyl)-1H-indole-3-carboxamide]
